Laboratory results taken from ChEMBL document CHEMBL1201862, “PubChem BioAssay data set” (2004).
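A five-concentration, 48-hour dose response in 96-well plates underlies each endpoint, interpolated linearly between surrounding concentrations. The concentration for 50% growth inhibition is given as GI50.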 Active and inactive are the calls of the source. Rule as the data show it: active = GI50 up to about 1.1 µM and inactive = higher.

Tests used:
Experiment in all cases: NCI tumour cell line growth inhibition, 48 h
KM-20L2 = tested on: KM-20L2
DLD-1 = tested on: DLD-1
LXFL 529 = tested on: LXFL 529
SNB-78 = tested on: SNB-78
RXF 631 = tested on: RXF 631
HOP-18 = tested on: HOP-18
M19-MEL = tested on: M19-MEL
XF498 = tested on: XF498
MDA-N = tested on: MDA-N

O=C(N/C(=C\c1ccc(/C=C(\NC(=O)c2ccccc2)c2nc3ccccc3s2)cc1)c1nc2ccccc2s1)c1ccccc1
GI50 (KM-20L2): 2.19 µM (inactive) | GI50 (DLD-1): 3.28 µM (inactive) | GI50 (LXFL 529): 2.98 µM (inactive) | GI50 (SNB-78): 20.8 µM (inactive) | GI50 (RXF 631): 7.96 µM (inactive) | GI50 (HOP-18): 13.2 µM (inactive) | GI50 (M19-MEL): 4.72 µM (inactive)

O=C1C=CC2(CCC23C=CC(=O)O3)O1 (stereo not given)
GI50 (KM-20L2): > 100 µM (inactive) | GI50 (DLD-1): > 100 µM (inactive) | GI50 (XF498): > 100 µM (inactive) | GI50 (LXFL 529): 81.3 µM (inactive) | GI50 (SNB-78): > 100 µM (inactive) | GI50 (RXF 631): 71 µM (inactive) | GI50 (HOP-18): > 100 µM (inactive) | GI50 (M19-MEL): > 100 µM (inactive)

Nn1c(-c2ccccc2)nc2ccc(Br)cc2c1=O
GI50 (KM-20L2): > 100 µM (inactive) | GI50 (DLD-1): 35.3 µM (inactive) | GI50 (XF498): 13.7 µM (inactive) | GI50 (LXFL 529): 34 µM (inactive) | GI50 (SNB-78): 85.7 µM (inactive) | GI50 (RXF 631): 59 µM (inactive) | GI50 (HOP-18): 17.5 µM (inactive) | GI50 (M19-MEL): 89.5 µM (inactive)

COC(=O)C1(C(=O)OC)CC(=O)c2cc3c(cc2-c2c(cc(OC)c(OC)c2OC)C1)OCO3
GI50 (KM-20L2): > 211 µM (inactive) | GI50 (DLD-1): > 211 µM (inactive) | GI50 (LXFL 529): 137 µM (inactive) | GI50 (RXF 631): > 211 µM (inactive) | GI50 (HOP-18): 0.0211 µM (active) | GI50 (M19-MEL): > 211 µM (inactive)

CC1=Nc2ccccc2C1C(Cc1ccccc1N)c1c(C)[nH]c2ccccc12 (stereo not given)
GI50 (KM-20L2): 15 µM (inactive) | GI50 (DLD-1): 18.2 µM (inactive) | GI50 (XF498): 18.5 µM (inactive) | GI50 (LXFL 529): 16 µM (inactive) | GI50 (RXF 631): 18.2 µM (inactive) | GI50 (HOP-18): 12.4 µM (inactive) | GI50 (M19-MEL): 17.4 µM (inactive)

COc1cccc2c1C(=N)c1c(O)c3c(c(O)c1C2=O)C[C@@](O)(C(C)=O)C[C@@H]3OC1CC(N)C(O)C(C)O1 (stereo not given in full)
GI50 (KM-20L2): 0.000374 µM (active) | GI50 (DLD-1): 2.2 µM (inactive) | GI50 (XF498): 0.202 µM (active) | GI50 (LXFL 529): 0.542 µM (active) | GI50 (SNB-78): 2 µM (inactive) | GI50 (RXF 631): 0.728 µM (active) | GI50 (HOP-18): 0.428 µM (active) | GI50 (M19-MEL): 0.486 µM (active) | GI50 (MDA-N): < 0.01 µM (active)
